Patent publication US20060009425A1, “Oral formulations of paricalcitol” (priority 2004, published 2006)
Like-named read-outs stand apart in the source and are kept apart here.

Assays:
[1] = Bioavailability of capsule vs intravenous formulation, end-stage renal disease on hemodialysis (Example 3); format: in vivo; conditions: human, plasma
[2] = Single and multiple dose pharmacokinetics, moderate to severe chronic renal impairment (Example 4, Table 23); format: in vivo, human; parameters: AUC0-24 on Study Day 8 vs. AUC0-∞ on Study Day 1, Point Estimate / AUC0-24 on Study Day 8 vs. AUC0-∞ on Study Day 1, 95% Confidence Interval: unit not given beside the values; conditions: for Cmax / Tmax / half-life / AUC(0-t) / AUC(0-inf) / fraction unbound / concentration at 24 h: human, plasma, oral; for AUC(0-t): read-out: AUC0-24; for concentration at 24 h: Study Day 9, read-out: trough concentration 24 h post dose on Study Day 8
Description: Methodology: This was a Phase 1, open-label, single and multiple-dose, multi-center study. A sufficient number of subjects were screened to have approximately 15 subjects with moderate renal impairment (CKD Stage 3) (Group 1, Glomerular Filtration Rate (GFR) of 30-60 mL/min) and approximately 15 subjects with severe renal impairment (CKD Stage 4) (Group 2, GFR <30 mL/min, not requiring dialysis) enrolled in the study. The subjects in moderate renal impairment group received 4 μg paricalcitol capsule on Study Day 1, and 4 μg QD for 6 doses over Study Days 3-8. The subjects in severe renal impairment group received 3 μg paricalcitol capsule on Study Day 1 and 3 μg QD for 6 doses over Study Days 3-8. Each dose of study was taken orally with approximately 180 mL of water at 0800, 30 minutes after breakfast was served.
Plasma concentrations of paricalcitol were determined using a validated liquid chromatography method with tandem mass spectrometric assay method at Abbott Laboratories, Ill.
Pharmacokinetic: Values for the pharmacokinetic parameters of paricalcitol, including the maximum observed plasma concentration (Cmax), the time to Cmax(Tmax), the terminal phase elimination rate constant (β), half life (t1/2), area under the plasma concentration-time curve (AUC), apparent total clearance (CL/F), and apparent volume of distribution (Vdβ/F) were determined using noncompartmental methods. Values of these parameters were determined after both single (first) dose (Study Day 1) and multiple doses (Study Day 8). In addition, minimum observed plasma concentration (Cmin), accumulation index (AI), and degree of fluctuation (DFL) after multiple doses were determined for the dose on Study Day 8 (steady state).
Pharmacokinetic: Point estimates and the corresponding 95% confidence intervals were obtained for central values of the pharmacokinetic parameters for each of the renal impairment groups. Two-sample t-test was performed to compare the pharmacokinetic parameters across the two renal impairment groups on each of Study Days 1 and 8. […] Within the framework of the analysis, the mean trough concentration values on Study Days 6, 7 and 8 were each compared to that at 24 h post Study Day 8 dose.
An analysis of variance (ANOVA) was performed on Tmax, β, and the logarithms of AUC and Cmax to compare the single-dose and steady-state data for each of the renal impairment groups. The same test was also performed for each group for the difference between the natural logarithm of the AUC0-24 on Day 8 and the natural logarithm of the AUC0-∞ on Study Day 1. Then the point estimate and 95% confidence interval for the ratio of the central values (the central value of the AUC0-24 on Study Day 8 to that of the AUC0-∞ on Study Day 1) were obtained by exponentiating the corresponding point estimate for the difference.
Paricalcitol capsules are under development for the prevention and treatment of secondary hyperparathyroidism in chronic kidney disease (CKD). The aim of this open-label, single and multiple dose, multi-center study was to evaluate the safety, and pharmacokinetics (PK) of paricalcitol in CKD Stage 3 (single 4 μg dose on Day 1 and 4 μg QD from Days 3-8) and CKD Stage 4 (single 3 μg dose on Day 1 and 3 μg QD from Days 3-8) subjects.

[3] = human, in vivo, 24 weeks
Description: Additionally, safety was assessed by the incidence of adverse events, the change from baseline in chemistry, hematology and urinalysis laboratory variables, the change from baseline in subject vital signs, and progressive changes in renal function observed via changes in eGFR.
All randomized subjects who received at least 1 dose of study drug were used in safety analyses. […] This comparison was performed using a Fisher's exact test. Secondary safety analyses were performed comparing changes/percent changes from baseline between the paricalcitol and placebo treatment groups using a one-way ANOVA with treatment group as the factor for the following variables: hematology, complete chemistry, and urinalysis variables; 24-hour urine collections, eGFR, urinary calcium/creatinine ratio, cardiovascular markers, and vital signs. Secondary safety analyses also consisted of an analysis of “treatment-emergent” adverse events (i.e., adverse events with an onset date on or after the date the first dose of study drug was taken). Adverse events were summarized by body system and COSTART term according to the COSTART V adverse event-coding dictionary. Comparisons of the percentage of subjects experiencing an adverse event between the paricalcitol and placebo treatment groups were performed using a Fisher's exact test.

[4] = 3 ug, severe renal impairment, 3 μg QD, Study Day 8
[5] = 3 ug, severe renal impairment, 3 μg, Study Day 1
[6] = 4 ug, moderate renal impairment, 4 μg QD, Study Day 8
[7] = 4 ug, moderate renal impairment, 4 μg, Study Day 1
[8] = 4 μg, moderate renal impairment
[9] = moderate renal impairment, 4 μg QD, Study Day 8
[10] = moderate renal impairment, 4 μg, Study Day 1
[11] = severe renal impairment, 3 μg QD, Study Day 8
[12] = severe renal impairment, 3 μg, Study Day 1

C[C@H](/C=C/[C@H](C)C(C)(C)O)[C@H]1CC[C@H]2/C(=C/C=C3C[C@@H](O)C[C@H](O)C3)CCC[C@]12C [Paricalcitol, 19-nor-1α,3β,25-trihydroxy-9,10-secoergosta-5(Z); 7(E),22(E)-triene]
half-life ([1]; 0.24 ug/kg, 0.24 μg/kg single dose, hemodialysis, harmonic mean ± pseudo-standard deviation): ~14 h
bioavailability ([1]; 0.24 μg/kg, single oral dose, nonfasting, end-stage renal disease on hemodialysis, read-out: estimated absolute bioavailability): 78.8%
Cmax [2, 4]: 0.097 ± 0.023 ng/mL
Tmax [2, 4]: 9.1 ± 5.5 h
half-life ([2]; 3 ug, severe renal impairment, 3 μg QD, Study Day 8, harmonic mean ± pseudo-standard deviation, read-out: t1/2 (converted)): 22.9 ± 5.63 h
AUC(0-t) [2, 4]: 1.75 ± 0.421 ng·h/mL
AUC(0-inf) [2, 5]: 2.13 ± 0.733 ng·h/mL
Cmax [2, 5]: 0.065 ± 0.012 ng/mL
Tmax [2, 5]: 5.9 ± 3.6 h
half-life ([2]; 3 ug, severe renal impairment, 3 μg, Study Day 1, harmonic mean ± pseudo-standard deviation, read-out: t1/2 (converted)): 19.7 ± 7.19 h
AUC(0-t) [2, 5]: 1.02 ± 0.23 ng·h/mL
fraction unbound ([2]; 3 μg, severe renal impairment): 0.0008 ± 0.0002
concentration at 24 h ([2]; 3 μg, severe renal impairment): 0.057 ± 0.014 ng/mL
Cmax [2, 6]: 0.155 ± 0.057 ng/mL
Tmax [2, 6]: 4.2 ± 1.9 h
half-life ([2]; 4 ug, moderate renal impairment, 4 μg QD, Study Day 8, harmonic mean ± pseudo-standard deviation, read-out: t1/2 (converted)): 15.5 ± 3.21 h
AUC(0-t) [2, 6]: 2.22 ± 0.701 ng·h/mL
AUC(0-inf) [2, 7]: 2.42 ± 0.614 ng·h/mL
Cmax [2, 7]: 0.113 ± 0.036 ng/mL
Tmax [2, 7]: 4.7 ± 2.5 h
half-life ([2]; 4 ug, moderate renal impairment, 4 μg, Study Day 1, harmonic mean ± pseudo-standard deviation, read-out: t1/2 (converted)): 16.8 ± 2.65 h
AUC(0-t) [2, 7]: 1.45 ± 0.407 ng·h/mL
fraction unbound [2, 8]: 0.0008 ± 0.0005
concentration at 24 h [2, 8]: 0.057 ± 0.019 ng/mL
half-life ([2]; moderate and severe renal impairment (CKD Stage 3 and 4) subjects, read-out: mean half-life): 16 to 23 h
steady state essentially reached by ([2]; moderate and severe renal impairment subjects, QD dosing): ≤ 6 Study Day
AUC0-24 on Study Day 8 vs. AUC0-∞ on Study Day 1, 95% Confidence Interval ([2]; moderate renal impairment): 0.8150-0.9896
AUC0-24 on Study Day 8 vs. AUC0-∞ on Study Day 1, Point Estimate ([2]; moderate renal impairment): 0.8981
CL/F [2, 9]: 2.014 ± 0.774 L/h
Cmax/Dose [2, 9]: 0.039 ± 0.014 ng/mL/µg
Cmin [2, 9]: 0.047 ± 0.018 ng/mL
DFL (degree of fluctuation) [2, 9]: 116.77 ± 35.24%
Vdβ/F [2, 9]: 46.76 ± 19.35 L
β [2, 9]: 0.045 ± 0.009 h−^1
CL/F [2, 10]: 1.766 ± 0.505 L/h
Cmax/Dose [2, 10]: 0.028 ± 0.009 ng/mL/µg
Vdβ/F [2, 10]: 43.72 ± 14.45 L
β [2, 10]: 0.041 ± 0.007 h−^1
pre-dose trough concentration ([2]; moderate renal impairment, Study Day 6): 0.050 ± 0.016 ng/mL
pre-dose trough concentration ([2]; moderate renal impairment, Study Day 7): 0.053 ± 0.014 ng/mL
pre-dose trough concentration ([2]; moderate renal impairment, Study Day 8): 0.053 ± 0.019 ng/mL
AUC0-24 on Study Day 8 vs. AUC0-∞ on Study Day 1, 95% Confidence Interval ([2]; severe renal impairment): 0.7612-0.9227
AUC0-24 on Study Day 8 vs. AUC0-∞ on Study Day 1, Point Estimate ([2]; severe renal impairment): 0.8380
CL/F [2, 11]: 1.751 ± 0.388 L/h
Cmax/Dose [2, 11]: 0.032 ± 0.008 ng/mL/µg
Cmin [2, 11]: 0.049 ± 0.010 ng/mL
DFL (degree of fluctuation) [2, 11]: 64.86 ± 17.79%
Vdβ/F [2, 11]: 61.61 ± 20.34^¥ L
β [2, 11]: 0.030 ± 0.007 h−^1
CL/F [2, 12]: 1.517 ± 0.359 L/h
Cmax/Dose [2, 12]: 0.022 ± 0.004 ng/mL/µg
Vdβ/F [2, 12]: 46.40 ± 12.45 L
β [2, 12]: 0.035 ± 0.013 h−^1
pre-dose trough concentration ([2]; severe renal impairment, Study Day 6): 0.051 ± 0.011 ng/mL
pre-dose trough concentration ([2]; severe renal impairment, Study Day 7): 0.050 ± 0.015 ng/mL
pre-dose trough concentration ([2]; severe renal impairment, Study Day 8): 0.056 ± 0.012 ng/mL
adverse event incidence: viral infection [3]: 10%
